Assay results published in patent US8022095B2, “Methods of treating headaches using 5-HT agonists in combination with long-acting NSAIDs” (Pozen, Inc., priority 1996, dated 2011).
Where two headings read alike, the source gives them in different places.

What was measured:
[1] = cited from earlier work; for time of peak plasma concentration after oral administration: oral dosing; for half-life: pharmacokinetic / plasma half-life; for lead time to peak plasma levels: list follows the words 'intramuscular routes will generally have shorter lead times to peak plasma levels'
[2] = tested on: migraine attack
Experimental: Headache relief at two hours was determined in a manner identical to that described above, but the relapse and sustained response rates were calculated based solely on a return of moderate or severe headache pain (i.e., no “rescue medication” protocol was used as a separate indicator of relapse).

[3] = tested on: migraine attacks; experiment: Open-label, randomized out-patient study, 16 migraine patients with high relapse rate, two successive migraine attacks; assay type: in vivo, human
Experimental: Headache pain was assessed by the patients on a 4-point scale (no pain, mild pain, moderate pain, or severe pain). Each patient was treated for two migraine attacks of moderate or severe intensity at baseline and pain scores were recorded every 30 minutes for the first two hours following dosing and at 3, 4, 6, 12 and 24 hours post-dose. “Relapse” was defined to occur in those patients who responded with an adequate reduction in headache pain (moderate or severe at baseline, reduced to no pain or mild pain) at 2 hours after administration and, in whom, over the next 22 hours either: (a) headache pain returned to moderate or severe intensity; or (b) “rescue medication” was required to treat the recurrent headache pain.

[4] = target: T1, COX-2 (Homo sapiens, UniProt P35354); conditions: reported (Feldman 2000; Sengupta 1999); cited from earlier work
T1 sequence (P35354 18-604): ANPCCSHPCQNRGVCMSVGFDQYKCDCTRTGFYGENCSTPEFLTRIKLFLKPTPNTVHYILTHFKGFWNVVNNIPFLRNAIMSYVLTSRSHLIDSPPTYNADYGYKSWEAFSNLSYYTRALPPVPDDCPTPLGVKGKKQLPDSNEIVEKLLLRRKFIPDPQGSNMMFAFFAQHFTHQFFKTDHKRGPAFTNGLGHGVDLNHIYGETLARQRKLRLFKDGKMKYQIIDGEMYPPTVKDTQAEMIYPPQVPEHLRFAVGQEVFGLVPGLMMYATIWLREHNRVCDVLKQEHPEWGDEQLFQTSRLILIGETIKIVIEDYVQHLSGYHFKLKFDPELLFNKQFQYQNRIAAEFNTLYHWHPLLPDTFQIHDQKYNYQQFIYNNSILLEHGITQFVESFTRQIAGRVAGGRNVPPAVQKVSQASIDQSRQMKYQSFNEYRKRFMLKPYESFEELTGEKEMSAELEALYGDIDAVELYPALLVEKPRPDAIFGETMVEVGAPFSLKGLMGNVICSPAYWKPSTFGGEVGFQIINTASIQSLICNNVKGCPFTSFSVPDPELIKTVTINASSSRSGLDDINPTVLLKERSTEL

[5] = tested on: migraine; experiment: Comparison of MT 400, triptan alone, NSAID alone and placebo in migraine patients; assay type: in vivo, human; conditions: for % with nausea / % with phonophobia / % with photophobia / Number with nausea / Number with phonophobia / Number with photophobia: at 2 hours; for Number with nausea / Number with phonophobia / Number with photophobia / Sustained Response (Sustained Pain Response), number of subjects / Sustained Pain Free responders, number of subjects: N = 250 / 229 / 247; for patients with improvement from moderate or severe pain at baseline to mild or no pain: at two hours; for Sustained Response (Sustained Pain Response), percentage of subjects: initial pain response without return of pain for 24 hours after dosing; for Sustained Response (Sustained Pain Response), number of subjects: initial pain response without return of pain for 24 hours; for Sustained Pain Free responders, number of subjects: pain score 0 at 2 hours and from 2 to 24 hours without rescue; for therapeutic gain, Sustained Pain Free / therapeutic gain over placebo, sustained response / therapeutic gain over placebo, pain response: response rate minus placebo response; for therapeutic gain over placebo, sustained response: 24 hours; for therapeutic gain over placebo, pain response: pain response at two hours
Experimental: In these experiments, a comparison was made between: patients administered triptan alone; patients administered NSAID alone; patients administered a combination of triptan and NSAID (“MT400”); and, in some cases, patients administered a placebo.
Sustained response was evaluated based upon the number of patients that experience an initial pain response without a return of pain for the 24 hours after dosing.
The most desirable outcome for the treatment of migraine is that the pain be eliminated quickly and not return. This outcome measure is termed Sustained Pain Free. Responders are defined as patients having a pain score of 0 at 2 hours and nothing more than 0 from 2 to 24 hours post dose without the need for rescue.
As migraine is a pathological complex characterized by unilateral headache, often accompanied by associated symptoms of nausea, photophobia and phonophobia, efficacy against these other parameters is important in evaluating the efficacy of a drug candidate.

## CS(=O)(=O)c1ccc(C2=C(c3ccccc3)C(=O)OC2)cc1 [rofecoxib]
[1]
  time of peak plasma concentration after oral administration: 2 to 3 h
  half-life: about 17 hours

## COc1ccc2cc(CCC(C)=O)ccc2c1 [nabumetone]
[1]
  lead time to peak plasma levels: 2.5 to 4 h
  half-life: 22 to 30 h

## COc1ccc2cc([C@H](C)C(=O)O)ccc2c1 [naproxen sodium]
[2]; 500 mg naproxen sodium alone, based solely on return of moderate or severe headache pain
  relapse rate: 26%

## Cc1ccc(-c2cc(C(F)(F)F)nn2-c2ccc(S(N)(=O)=O)cc2)cc1 [Celecoxib, celecoxib]
[1]
  time of peak plasma concentration after oral administration: approximately 3 hours
  half-life: approximately 11 hours

## CNS(=O)(=O)Cc1ccc2[nH]cc(CCN(C)C)c2c1 [sumatriptan]
[3]; % of 16 patients, relapse criteria including rescue medication
  24 hour sustained response: 44%
[3]; of 16 patients, relapse criteria including rescue medication
  number of patients with 24 hour sustained response: seven
[3]; re-analysed, based solely on return of moderate or severe headache pain
  relapse rate: 40%
[3]; relapse = return of moderate or severe pain or rescue medication within 22 hours after the 2 hour response
  relapse rate of responding patients: 46%
[3]; responds initially and no relapse in twenty-four hours, criteria of the second study
  sustained response rate: 56%
[1]; oral doses of about 1-300 mg
  peak serum concentration: 1 to 300 ng/mL
[1]; subcutaneous injections of about 1 to 8 mg
  peak serum concentration: 1 to 150 ng/mL

## CCc1cccc2c3c([nH]c12)C(CC)(CC(=O)O)OCC3 (stereo not shown) [etodolac]
[4]
  specificity for COX-2: highly specific for COX-2
[1]
  half-life: about 7 hours

## Cc1ccc(Cl)c(Nc2ccccc2C(=O)O)c1Cl [meclofenamate, Meclofenamate sodium]
[1]
  lead time to peak plasma levels: 0.5 to 1 h

## CN1C(C(=O)Nc2ccccn2)=C(O)c2sc(Cl)cc2S1(=O)=O [lornoxicam]
[1]
  time of peak plasma concentration after oral administration: approximately two
  half-life: about 4 hours
[1]; listed as Lornoxicam
  half-life: approximately 4 hours

## Cc1cccc(Nc2ccccc2C(=O)O)c1C [mefenamic acid]
[4]
  specificity for COX-2: highly specific for COX-2
[1]
  half-life: up to 4 hours

## CC(C(=O)O)c1ccc(-c2ccccc2)c(F)c1 (stereo not shown) [flurbiprofen]
[1]
  half-life: about 6 hours

## O=C(c1ccccc1)c1ccc2n1CCC2C(=O)O (stereo not shown) [ketorolac]
[1]
  half-life: 8 to 9 h

## O=C(O)CCc1nc(-c2ccccc2)c(-c2ccccc2)o1 [oxaprozin]
[1]
  half-life: 42 to 50 h
[1]; listed as Oxaprozin
  half-life: 42 to 50 h

## COc1ccc2cc([C@H](C)C(=O)O)ccc2c1 [naproxen]
[2]; responds initially and no relapse in twenty-four hours
  sustained response rate: 46%
[5]
  % with nausea: (31.2%)
  % with phonophobia: (47.8%)
  % with photophobia: (57.5%)
  Number with nausea: 77
  Number with phonophobia: 118
  Number with photophobia: 142
  patients with improvement from moderate or severe pain at baseline to mild or no pain: 46%
  Sustained Response (Sustained Pain Response), percentage of subjects: 24.7%
  Sustained Response (Sustained Pain Response), number of subjects: 61
  Sustained Pain Free responders, number of subjects: 29
  therapeutic gain, Sustained Pain Free: 6.7%
  therapeutic gain over placebo, sustained response: 8%
  therapeutic gain over placebo, pain response: 19%
[5]; listed as Naproxen
  Sustained Response (Sustained Pain Response), percentage of subjects: (24.7%)
[5]; pain score 0 at 2 hours and nothing more than 0 from 2 to 24 hours post dose without rescue
  Sustained Pain Free responders, percentage of subjects: (11.7%)

## COc1ccc2c(c1)c(CC(=O)O)c(C)n2C(=O)c1ccc(Cl)cc1 [indomethacin]
[1]
  lead time to peak plasma levels: 1 to 4 h

## Cc1onc(-c2ccccc2)c1-c1ccc(S(N)(=O)=O)cc1 [valdecoxib]
[1]
  time of peak plasma concentration after oral administration: 2 to 3 h
  half-life: 8 to 11 h

## CNS(=O)(=O)Cc1ccc2[nH]cc(CCN(C)C)c2c1 [Imitrex, sumatriptan succinate]
[5]
  % with nausea: (31.9%)
  % with phonophobia: (44.5%)
  % with photophobia: (50.2%)
  Number with nausea: 73
  Number with phonophobia: 102
  Number with photophobia: 115
  patients with improvement from moderate or severe pain at baseline to mild or no pain: 49%
  Sustained Response (Sustained Pain Response), number of subjects: 66
  Sustained Pain Free responders, number of subjects: 25
  therapeutic gain, Sustained Pain Free: 5.9%
  therapeutic gain over placebo, sustained response: 12%
  therapeutic gain over placebo, pain response: 22%

## CN1C(C(=O)Nc2ccccn2)=C(O)c2ccccc2S1(=O)=O [piroxicam]
[1]; in vivo
  time of dosing until steady state plasma concentrations are reached: 7 to 12 days
